{"source": "patent US12157741B2", "about": "“Macrocyclic inhibitors of DYRK1A” (DANA-FARBER CANCER INSTITUTE, INC., priority 2018, dated 2024)", "key": {"various enzymes [1]": {"target": "various enzymes (Homo sapiens, UniProt P00533, DEL747-749/A750P)", "conditions": "EGFR(L747-E749del, A750P); 1 uM", "protocol": "(§1) Ambit profiling from Eurofins (formerly Discoverx) was conducted in accordance with the manufacturer's instructions."}, "various enzymes [2]": {"target": "T1, various enzymes (Homo sapiens, UniProt Q6P2M8)", "T1 sequence (Q6P2M8 whole entry)": "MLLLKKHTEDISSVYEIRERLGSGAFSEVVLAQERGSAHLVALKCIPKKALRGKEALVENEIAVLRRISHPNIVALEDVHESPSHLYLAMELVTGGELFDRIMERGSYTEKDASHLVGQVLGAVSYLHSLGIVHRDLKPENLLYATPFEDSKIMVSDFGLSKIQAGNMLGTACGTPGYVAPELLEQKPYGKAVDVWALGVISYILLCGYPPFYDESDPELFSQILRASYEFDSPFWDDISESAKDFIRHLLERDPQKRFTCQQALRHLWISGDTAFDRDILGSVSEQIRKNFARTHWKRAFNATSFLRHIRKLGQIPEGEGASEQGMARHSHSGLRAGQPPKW", "assay": "Enzyme IC50 of compound 48 (Table 3)", "assay_type": "biochemical", "design": "Enzyme IC50; other: CAMK1B", "conditions": "CAMK1B"}, "various enzymes [3]": {"target": "T2, various enzymes (Homo sapiens, UniProt P45985)", "T2 sequence (P45985 1-399)": "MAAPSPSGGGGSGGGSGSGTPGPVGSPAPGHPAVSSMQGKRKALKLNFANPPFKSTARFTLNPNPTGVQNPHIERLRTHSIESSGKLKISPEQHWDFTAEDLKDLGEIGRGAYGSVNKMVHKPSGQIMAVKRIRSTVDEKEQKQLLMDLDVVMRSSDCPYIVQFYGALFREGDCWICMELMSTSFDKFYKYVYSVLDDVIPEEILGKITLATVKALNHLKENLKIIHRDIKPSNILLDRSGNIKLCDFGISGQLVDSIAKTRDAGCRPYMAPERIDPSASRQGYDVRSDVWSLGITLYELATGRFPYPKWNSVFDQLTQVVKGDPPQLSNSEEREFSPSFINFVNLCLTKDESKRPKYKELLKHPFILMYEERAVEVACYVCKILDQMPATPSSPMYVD", "assay": "Enzyme IC50 of compound 48 (Table 3)", "assay_type": "biochemical", "design": "Enzyme IC50; other: MEK4", "conditions": "MEK4"}, "various enzymes [4]": {"target": "various enzymes (Homo sapiens, UniProt P36888, F691L, form not given)"}, "various enzymes [5]": {"target": "T1, various enzymes", "conditions": "CAMK1B; 1 uM", "protocol": "as §1"}, "various enzymes [6]": {"target": "various enzymes (Homo sapiens, UniProt P36888, D835V, form not given)"}, "DYRK1B": {"target": "T3, DYRK1B (Homo sapiens, UniProt Q9Y463)", "T3 construct": "purchased Invitrogen (assay run by the vendor)", "T3 sequence (Q9Y463 whole entry)": "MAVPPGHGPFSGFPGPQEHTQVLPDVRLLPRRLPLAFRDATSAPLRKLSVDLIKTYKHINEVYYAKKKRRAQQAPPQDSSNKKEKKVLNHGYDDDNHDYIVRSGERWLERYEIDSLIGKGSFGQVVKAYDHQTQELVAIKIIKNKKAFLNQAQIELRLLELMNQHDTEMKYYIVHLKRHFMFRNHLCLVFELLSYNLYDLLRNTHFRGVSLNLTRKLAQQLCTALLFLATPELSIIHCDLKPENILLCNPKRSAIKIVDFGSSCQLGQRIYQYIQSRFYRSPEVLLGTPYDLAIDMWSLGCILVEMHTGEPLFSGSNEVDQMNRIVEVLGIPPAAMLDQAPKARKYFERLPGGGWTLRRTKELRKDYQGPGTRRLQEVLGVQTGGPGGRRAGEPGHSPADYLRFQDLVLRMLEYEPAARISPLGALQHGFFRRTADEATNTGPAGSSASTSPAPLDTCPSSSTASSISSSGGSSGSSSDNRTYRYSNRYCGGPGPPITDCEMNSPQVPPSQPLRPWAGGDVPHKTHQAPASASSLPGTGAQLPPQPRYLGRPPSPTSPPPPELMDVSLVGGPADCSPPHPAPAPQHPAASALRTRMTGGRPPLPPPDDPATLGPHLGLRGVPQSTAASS", "assay": "Invitrogen Zlyte assay, DYRK1B", "assay_type": "biochemical"}}, "data": [{"smiles": "CN1Cc2nn(C)cc2-c2cnc3[nH]cc(c3c2)-c2cnn(c2)CCCC1=O", "note": "[Compound 41, (Z)-31,5-dimethyl-11H,21H,31H-5-aza-2(3,5)-pyrrolo[2,3-b]pyridina-1(4,1),3(4,3)-dipyrazolacyclononaphan-6-one]", "values": [{"measurement": "Ambit profiling", "setting": "various enzymes [1]", "result": 79}]}, {"smiles": "CN1Cc2nn(C)c(C#N)c2-c2cnc3[nH]cc(c3c2)-c2cn(nc2C(F)(F)F)CCCC1=O", "note": "[Compound 48, (Z)-31,5-dimethyl-6-oxo-13-(trifluoromethyl)-11H,21H,31H-5-aza-2(3,5)-pyrrolo[2,3-b]pyridina-1(4,1),3(4,3)-dipyrazolacyclononaphane-35-carbonitrile]", "values": [{"measurement": "IC50", "setting": "various enzymes [2]", "result": 0.83, "unit": "µM"}, {"measurement": "IC50", "setting": "various enzymes [3]", "result": 0.173, "unit": "µM"}, {"measurement": "Ambit profiling", "setting": "various enzymes [4]", "result": 46}, {"measurement": "Ambit profiling", "setting": "various enzymes [5]", "result": 2.9}, {"measurement": "Ambit profiling", "setting": "various enzymes [6]", "result": 2.2}]}, {"smiles": "COc1c2c(nn1C)CN(C(C)C)C(=O)CCCn1cc(c(C(F)(F)F)n1)-c1c[nH]c3ncc-2cc13", "note": "[Compound 50, (Z)-5-isopropyl-35-methoxy-31-methyl-13-(trifluoromethyl)-11H,21H,31H-5-aza-2(3,5)-pyrrolo[2,3-b]pyridina-1(4,1),3(4,3)-dipyrazolacyclononaphan-6-one]", "values": [{"measurement": "IC50", "setting": "DYRK1B", "result": 0.146, "unit": "µM"}]}]}
